Data published in patent US7915292B2, “Antibacterial quinoline derivatives” (Janssen Pharmaceutica NV, priority 2005, dated 2011).

Columns and labels:
M. Smegmatis ATCC607 = experiment: In-vitro anti-bacterial activity against strain M. smegmatis ATCC607 (Alamar Blue growth inhibition); format: cell-based; details: 48 hours incubation; for IC50: Mycolicibacterium smegmatis, read-out: M. smegmatis pIC50 (converted)
Experimental: Serial five-fold dilutions (45 μl in 180 μl) were made directly in the microtiter plates from column 2 to 11 using a customised robot system (Zymark Corp., Hopkinton, Mass.). Pipette tips were changed after every 3 dilutions to minimize pipetting errors with high hydrophobic compounds. Untreated control samples with (column 1) and without (column 12) inoculum were included in each microtiter plate. Approximately 250 CFU per well of bacteria inoculum, in a volume of 100 μl in 2.8× Mueller-Hinton broth medium, was added to the rows […]. The same volume of broth medium without inoculum was added to column 12 in row A to H. The cultures were incubated at 37° C. for 48 hours in a humidified 5% CO2 atmosphere (incubator with open air valve and continuous ventilation). At the end of incubation, two days after inoculation, the bacterial growth was quantitated fluorometrically. Therefore Alamar Blue (10×) was added to all wells in a volume of 20 μl and plates were incubated for another 2 hours at […] The fluorescence was read in a computer-controlled fluorometer (Cytofluor, Biosearch) at an excitation wavelength of 530 nm and an emission wavelength of 590 nm (gain 30). The percentage growth inhibition achieved by the compounds was calculated according to standard methods and expressed as pIC50 values.

[1] = system: Mycobacterium tuberculosis (strain H37RV); experiment: In-vitro method for testing compounds against M. tuberculosis (resazurin growth inhibition); format: cell-based; details: 7 days incubation

| Compound | M. smegmatis pIC50 (M. Smegmatis ATCC607) | also measured |
| --- | --- | --- |
| COc1nc2ccc(Br)cc2cc1C(c1ccccc1)N(C)CC(=O)N(CCC#N)Cc1cccnc1 (stereo not shown) [Compound 14] | 5.2 |  |
| Cc1ccc2nc(-c3ccccc3)c(C(c3ccccc3)N(C)CC(=O)N3CCOCC3)cc2c1 (stereo not shown) [Compound 63] | 5.1 |  |
| Cc1ccc2nc(-c3ccccc3)c(C(c3ccccc3)N(C)CC(=O)N(C)C)cc2c1 (stereo not shown) [Compound 39] | 4.5 |  |
| COc1nc2ccc(Br)cc2cc1C(c1ccccc1)N(C)CC(=O)N1CCC(C)CC1 (stereo not shown) [Compound 83] |  | IC50 (M. Smegmatis ATCC607): 2510 nM |
| COc1nc2ccc(Br)cc2cc1C(c1ccccc1)N(C)CCN(C)C (stereo not shown) [Compound 1] | 5.1 |  |
| COc1nc2ccc(Br)cc2cc1C(c1ccccc1)N(CC(=O)N1CCOCC1)Cc1ccccn1 (stereo not shown) [Compound 110] | 5.2 |  |
| Cc1ccc2nc(-c3ccccc3)c(C(c3ccccc3)N(CC(=O)N3Cc4ccccc4C3)Cc3ccccc3)cc2c1 (stereo not shown) [Compound 73] |  | M. tuberculosis pIC50 [1]: 4.5 |
| CCOC(=O)CN(Cc1ccoc1)C(c1ccccc1)c1cc2cc(Br)ccc2nc1OC (stereo not shown) [Compound 136] | 4.4 |  |
| CN(C)C(=O)CN(Cc1ccccc1)C(c1ccccc1)c1cc2ccccc2nc1-c1ccccc1 (stereo not shown) [Compound 32] | 5.7 |  |
| COc1nc2ccc(Br)cc2cc1C(c1ccccc1)N(C)CC(=O)N1CCCN(C)CC1 (stereo not shown) [Compound 84] | 5.1 |  |
| CN(C)C(=O)CN(Cc1ccccc1)C(c1cc2ccccc2o1)c1cc2ccccc2nc1-c1ccccc1 (stereo not shown) [Compound 35] | 5.6 |  |
| CCN(CC)CCN(C)C(c1ccccc1)c1cc2cc(Br)ccc2nc1OC (stereo not shown) [Compound 2] |  | IC50 (M. Smegmatis ATCC607): 2000 nM |
| COc1nc2ccc(Br)cc2cc1C(c1ccccc1)N(CC(=O)N1CCSCC1)Cc1cccc2ncccc12 (stereo not shown) [Compound 115] | 4.8 |  |
| COc1nc2ccc(Br)cc2c(Cl)c1C(c1ccccc1)N(C)CC(=O)N(C)C (stereo not shown) [Compound 15] | 4.8 |  |
| O=C(CN(Cc1ccccc1)C(c1cc2ccccc2o1)c1cc2ccccc2nc1-c1ccccc1)N1CCSCC1 (stereo not shown) [Compound 58] | 6.1 |  |
| COc1nc2ccc(Br)cc2cc1C(c1ccccc1)N(C)CC(=O)N1CCN(c2ccccn2)CC1 (stereo not shown) [Compound 92] | 5.1 |  |
| CC(C)N(C)C(=O)CN(Cc1ccccc1)C(c1ccccc1)c1cc2ccccc2nc1-c1ccccc1 (stereo not shown) [Compound 33] | 6.5 |  |
| CCOC(=O)CN(Cc1ccccn1)C(c1ccccc1)c1cc2cc(Br)ccc2nc1OC (stereo not shown) [Compound 139] | 4.3 |  |
| COCCN(CCOC)C(=O)CN(Cc1ccccc1)C(c1ccccc1)c1cc2cc(C)ccc2nc1-c1ccccc1 (stereo not shown) [Compound 50] | 5.8 |  |
| COc1nc2ccc(Br)cc2cc1C(c1ccccc1)N(CC(=O)N(C)C)Cc1cccc2ncccc12 (stereo not shown) [Compound 25] | 5.4 |  |
| O=C(CN(Cc1ccccc1)C(c1ccccc1)c1cc2ccccc2nc1-c1ccccc1)N1CCCCC1 (stereo not shown) [Compound 126] | 6.4 |  |
| COc1nc2ccc(Br)cc2cc1C(c1ccccc1)N(CC(=O)N1CCSCC1)Cc1ccc2ccccc2n1 (stereo not shown) [Compound 113] | 4.5 |  |
| CNC(=O)CN(Cc1ccccc1)C(c1ccccc1)c1cc2cc(C)ccc2nc1-c1ccccc1 (stereo not shown) [Compound 40] | 5.6 |  |

| Compound | M. smegmatis pIC50 (M. Smegmatis ATCC607) | also measured |
| --- | --- | --- |
| COc1nc2ccc(Br)cc2cc1C(c1ccccc1)N(C)CC(=O)N1CCOCC1 (stereo not shown) [Compound 86] | 4.9 |  |
| Cc1ccc2nc(-c3ccccc3)c(C(c3ccccc3)N(CC(=O)NN3CCOCC3)Cc3ccccc3)cc2c1 (stereo not shown) [Compound 44] | 5.1 |  |
| CCN(Cc1ccncc1)C(=O)CN(C)C(c1ccccc1)c1cc2cc(Br)ccc2nc1OC (stereo not shown) [Compound 12] | 5.1 |  |
| COc1nc2ccc(Br)cc2cc1C(c1ccccc1)N(C)CC(=O)N(C)CCCN(C)C (stereo not shown) [Compound 9] | 5 |  |
| COc1nc2ccc(Br)cc2cc1C(c1ccccc1)N(CC(=O)N1CCOCC1)Cc1ccco1 (stereo not shown) [Compound 101] | 4.9 |  |
| COc1nc2ccc(Br)cc2cc1C(c1ccccc1)N(C)CC(=O)N(C)c1ccccc1C (stereo not shown) [Compound 10] | 4.7 |  |
| COc1nc2ccc(Br)cc2cc1C(c1ccccc1)N(C)CC(=O)N1CCCCC1 (stereo not shown) [Compound 82] | 4.4 |  |
| CCCCN(C)C(=O)CN(C)C(c1ccccc1)c1cc2cc(Br)ccc2nc1OC (stereo not shown) [Compound 6] | 5.1 |  |
| COc1nc2ccc(Br)cc2cc1C(c1ccccc1)[N+]([O-])(CC(=O)N1CCOCC1)Cc1ccccc1 (stereo not shown) [Compound 154] |  | IC50 (M. Smegmatis ATCC607): 3980 nM |
| COc1nc2ccc(Br)cc2cc1C(c1ccccc1)N(C)CCCN(C)C (stereo not shown) [Compound 27] | 5.5 |  |
| Cc1ccc2nc(-c3ccccc3)c(C(c3ccccc3)N(CC(=O)N3CCN(c4ccccn4)CC3)Cc3ccccc3)cc2c1 (stereo not shown) [Compound 75] |  | M. tuberculosis pIC50 [1]: 5.4 |
| COc1nc2ccc(Br)cc2cc1C(c1ccccc1)N(C)CC(=O)N(C)CCN(C)C (stereo not shown) [Compound 8] | 5.1 |  |
| O=C(CN(Cc1ccccc1)C(c1ccccc1)c1cc2ccccc2nc1-c1ccccc1)N1CCSCC1 (stereo not shown) [Compound 127] | 6.5 |  |
| COc1nc2ccc(Br)cc2cc1C(c1ccccc1)N(C)CC(=O)N(C)C (stereo not shown) [Compound 4] | 5.1 |  |
| CC(C)N(C)C(=O)CN(Cc1ccccc1)C(c1cc2ccccc2o1)c1cc2ccccc2nc1-c1ccccc1 (stereo not shown) [Compound 36] |  | IC50 (M. Smegmatis ATCC607): 316 nM |
| COCCN(CCOC)C(=O)CN(C)C(c1ccccc1)c1cc2cc(Br)ccc2nc1OC (stereo not shown) [Compound 13] | 4.6 |  |
| COc1nc2ccc(Br)cc2cc1C(c1ccccc1)N(CC(=O)N1CCN(C)CC1)Cc1ccnc2ccccc12 (stereo not shown) [Compound 119] | 5.5 |  |
| COc1nc2ccc(Br)cc2cc1C(c1ccccc1)N(CC(=O)N1CCOCC1)C(C)C (stereo not shown) [Compound 98] | 5.3 |  |
| COc1nc2ccc(Br)cc2cc1C(c1ccccc1)N(C)CC(=O)N1CC(C)OC(C)C1 (stereo not shown) [Compound 87] | 5.1 |  |
| COc1nc2ccc(Br)cc2cc1C(c1ccccc1)N(CC(=O)N(C)C)Cc1ccccc1 (stereo not shown) [Compound 24] | 5.1 |  |
| COc1nc2ccc(Br)cc2cc1C(c1ccccc1)N(C)CC(=O)N1CCSC1 (stereo not shown) [Compound 81] | 5 |  |
| CC(C)N(C)C(=O)CN(Cc1ccccc1)C(c1ccccc1)c1cc2cc(Br)ccc2nc1Oc1ccccc1 (stereo not shown) [Compound 30] |  | IC50 (M. Smegmatis ATCC607): 631 nM |
| COc1nc2ccc(Br)cc2c(Cl)c1C(c1ccccc1)N(C)CC(=O)N1CCOCC1 (stereo not shown) [Compound 96] | 5.2 |  |

| Compound | M. smegmatis pIC50 (M. Smegmatis ATCC607) | also measured |
| --- | --- | --- |
| COc1nc2ccc(Br)cc2cc1C(c1ccccc1)N(C)CC(=O)N1CCCC1 (stereo not shown) [Compound 80] | 5.1 |  |
| COc1nc2ccc(Br)cc2cc1C(c1ccccc1)N(CCCN(C)C)CCCN(C)C (stereo not shown) [Compound 28] | 5.1 |  |
| COc1nc2ccc(Br)cc2cc1C(c1ccccc1)N(C)CC(=O)N(C)CC#N (stereo not shown) [Compound 7] | 4.9 |  |
| COc1nc2ccc(C)cc2cc1C(c1ccccc1)N(CCC(=O)N1CCOCC1)Cc1ccccc1 (stereo not shown) [Compound 60] | 5.3 |  |
| COc1nc2ccc(Br)cc2cc1C(c1ccccc1)N(C)CC(=O)N1CC=CCC1 (stereo not shown) [Compound 85] | 5.1 |  |
| O=C(CN(Cc1ccccc1)C(c1cccnc1)c1cc2ccccc2nc1-c1ccccc1)N1CCSCC1 (stereo not shown) [Compound 56] | 5.8 |  |
| COc1nc2ccc(Br)cc2cc1C(c1ccccc1)N(CC(=O)N1CCOCC1)Cc1ccnc2ccccc12 (stereo not shown) [Compound 118] | 5.6 |  |
| Cc1ccc2nc(-c3ccccc3)c(C(c3ccccc3)N(CC(=O)NCC3CC3)Cc3ccccc3)cc2c1 (stereo not shown) [Compound 42] | 5.8 |  |
| Cc1ccc2nc(-c3ccccc3)c(C(c3ccccc3)N(CC(=O)NC3CCCCC3)Cc3ccccc3)cc2c1 (stereo not shown) [Compound 43] | 5.2 |  |
| COc1nc2ccc(Br)cc2cc1C(c1ccccc1)N(CC(=O)N(C)C)Cc1ccnc2ccccc12 (stereo not shown) [Compound 26] | 5.7 |  |
| COc1nc2ccc(Br)cc2cc1C(c1ccccc1)N(C)CC(=O)N(C)C(C)C (stereo not shown) [Compound 5] | 5.1 |  |
| COc1nc2ccc(Br)cc2cc1C(c1ccccc1)N(C)CC(=O)N1Cc2ccccc2C1 (stereo not shown) [Compound 95] | 4.9 |  |
| Cc1ccc2nc(-c3ccccc3)c(C(c3ccccc3)N(C)CC(=O)N3CCN(C)CC3)cc2c1 (stereo not shown) [Compound 62] | 5.1 |  |
| COc1nc2ccc(Br)cc2cc1C(c1ccccc1)N(CC(=O)N1CCSCC1)Cc1ccnc2ccccc12 (stereo not shown) [Compound 117] | 4.3 |  |
| COc1nc2ccc(Br)cc2cc1C(c1ccccc1)N(CC(=O)N1CCOCC1)Cc1cccc2ncccc12 (stereo not shown) [Compound 116] | 5.3 |  |
| CCOC(=O)CN(Cc1ccccc1)C(c1cccnc1)c1cc2ccccc2nc1-c1ccccc1 (stereo not shown) [Compound 129] |  | IC50 (M. Smegmatis ATCC607): 1580 nM |
| COc1nc2ccc(Br)cc2cc1C(c1ccccc1)N(C)CC(=O)N1CCN(Cc2ccccc2)CC1 (stereo not shown) [Compound 91] | 4.1 |  |
| COc1nc2ccc(Br)cc2cc1C(c1ccccc1)N(C)CC(=O)N1CCN(C)CC1 (stereo not shown) [Compound 89] | 5 |  |
| Cc1ccc2nc(-c3ccccc3)c(C(c3ccccc3)N(C)CCN(C)C)cc2c1 (stereo not shown) [Compound 37] |  | IC50 (M. Smegmatis ATCC607): 20000 nM |
| CNC(=O)CN(C)C(c1ccccc1)c1cc2cc(C)ccc2nc1-c1ccccc1 (stereo not shown) [Compound 38] | 4.5 |  |
| O=C(CN(Cc1ccccc1)C(c1cc2ccccc2o1)c1cc2ccccc2nc1-c1ccccc1)N1CCCC1 (stereo not shown) [Compound 57] | 5.9 |  |
